Tests used:
PI3Kγ = PI3Kγ (Homo sapiens (Human), UniProt P48736); experiment: PI3K enzyme assay, [γ-33P]ATP filter plate (Example A2), PI3Kγ; assay type: biochemical; conditions: read-out: PI3Kγ^c IC50
Method: Materials: Lipid kinase substrate, phosphoinositol-4,5-bisphosphate (PIP2), was purchased from Echelon Biosciences (Salt Lake City, Utah). PI3K isoforms α, β, δ and γ were purchased from Millipore (Bedford, Mass.). ATP, MgCl2, DTT, EDTA, MOPS and CHAPS were purchased from Sigma—Aldrich (St. Louis, Mo.).
(§1) The kinase reaction was conducted in clear-bottom 96-well plate from Thermo Fisher Scientific in a final volume of 24 μL. Inhibitors were first diluted serially in DMSO and added to the plate wells before the addition of other reaction components. The final concentration of DMSO in the assay was 0.5%. The PI3K assays were carried out at room temperature in 20 mM MOPS, pH 6.7, 10 mM MgCl2, 5 mM DTT and CHAPS 0.03%. The reaction mixture was prepared containing 50 μM PIP2, kinase and varying concentration of inhibitors. Reactions were initiated by the addition of ATP containing 2.2 μCi [γ-^33P]ATP to a final concentration of 1000 μM. The final concentration of PI3K isoforms α, β, δ and γ in the assay were 1.3, 9.4, 2.9 and 10.8 nM respectively. Reactions were incubated for 180 min and terminated by the addition of 100 μL of 1 M potassium phosphate pH 8.0, 30 mM EDTA quench buffer. […] After the plate sealing, the radioactivity of the product was determined by scintillation counting on Topcount (Perkin-Elmer). […]

PI3Kβ = PI3Kβ (Homo sapiens (Human), UniProt P42338); experiment: PI3K enzyme assay, [γ-33P]ATP filter plate (Example A2), PI3Kβ; assay type: biochemical; conditions: read-out: PI3Kβ^c IC50
Method: as §1, with “Materials: Lipid kinase substrate, phosphoinositol-4,5-bisphosphate (PIP2), was purchased from Echelon Biosciences (Salt Lake City, Utah). PI3K isoforms α, β, δ and γ were purchased from Millipore (Bedford, Mass.). ATP, MgCl2, DTT, EDTA, MOPS and CHAPS were purchased from Sigma—Aldrich (St. Louis, Mo.). The kinase” for “The kinase”, “1000 μM. […] Reactions were” for “1000 μM. The final concentration of PI3K isoforms α, β, δ and γ in the assay were 1.3, 9.4, 2.9 and 10.8 nM respectively. Reactions were”

PI3Kα = PI3Kα (Homo sapiens (Human), UniProt P42336); experiment: PI3K enzyme assay, [γ-33P]ATP filter plate (Example A2), PI3Kα; assay type: biochemical; conditions: read-out: PI3Kα^c IC50
Method: Materials: Lipid kinase substrate, phosphoinositol-4,5-bisphosphate (PIP2), was purchased from Echelon Biosciences (Salt Lake City, Utah). PI3K isoforms α, β, δ and γ were purchased from Millipore (Bedford, Mass.). […] The kinase reaction was conducted in clear-bottom 96-well plate from Thermo Fisher Scientific in a final volume of 24 μL. Inhibitors were first diluted serially in DMSO and added to the plate wells before the addition of other reaction components. The final concentration of DMSO in the assay was 0.5%. The PI3K assays were carried out at room temperature in 20 mM MOPS, pH 6.7, 10 mM MgCl2, 5 mM DTT and CHAPS 0.03%. The reaction mixture was prepared containing 50 μM PIP2, kinase and varying concentration of inhibitors. Reactions were initiated by the addition of ATP containing 2.2 μCi [γ-^33P]ATP to a final concentration of 1000 μM. […] Reactions were incubated for 180 min and terminated by the addition of 100 μL of 1 M potassium phosphate pH 8.0, 30 mM EDTA quench buffer. […] The filter plate was aspirated on a Millipore Manifold under vacuum and washed with 18×200 μL wash buffer containing 1 M potassium phosphate pH 8.0 and 1 mM ATP. After drying by aspiration and blotting, the plate was air dried in an incubator at 37° C. overnight. […] After the plate sealing, the radioactivity of the product was determined by scintillation counting on Topcount (Perkin-Elmer). […]

[1] = test system: Pfeiffer cell line (diffuse large B cell lymphoma); experiment: Pfeiffer cell proliferation assay (Example B2); assay type: cell-based; conditions: Pfeiffer cells, [3H]-thymidine
Method: Pfeiffer cell line (diffuse large B cell lymphoma) was purchased from ATCC (Manassas, Va.) and maintained in the culture medium recommended (RPMI and 10% FBS). To measure the anti-proliferation activity of the PI3Kδ submittals, the Pfeiffer cells were plated with the culture medium (2×10^3 cells/well/per 200 μl) into 96-well ultra-low binding plates (Corning, Corning, N.Y.), in the presence or absence of a concentration range of test compounds. After 3-4 days, [^3H]-thymidine (1 μCi/well) (PerkinElmer, Boston, Mass.) in PBS was then added to the cell culture for an additional 12 hrs before the incorporated radioactivity was separated by filtration with water through GF/B filters (Packard Bioscience, Meridenj, Conn.) and measured by liquid scintillation counting with a TopCount (Packard Bioscience). See Table 3 for data related to compounds of the invention.

B cells = experiment: B cell proliferation assay (Example B1); assay type: cell-based; conditions: purified human B cells, anti-human IgM, [3H]-thymidine
Method: To acquire B cells, human PBMC were isolated from the peripheral blood of normal, drug free donors by standard density gradient centrifugation on Ficoll-Hypague (GE Healthcare, Piscataway, N.J.) and incubated with anti-CD19 microbeads (Miltenyi Biotech, Auburn, Calif.). The B cells were then purified by positive immunosorting using an autoMacs (Miltenyi Biotech) according to the manufacturer's instruction.
The purified B cells (2×10^5/well/200 μL) were cultured in 96-well ultra-low binding plates (Corning, Corning, N.Y.) in RPMI1640, 10% FBS and goat F(ab′)2 anti-human IgM ([…]) (Invitrogen, Carlsbad, Calif.), in the presence of different amount of test compounds, […] [^3H]-thymidine (1 μCi/well) (PerkinElmer, Boston, Mass.) in PBS was then added to the B cell cultures for an additional 12 hrs before the incorporated radioactivity was separated by filtration with water through GF/B filters (Packard Bioscience, Meriden, Conn.) and measured by liquid scintillation counting with a TopCount (Packard Bioscience). […] See Table 2 for data related to compounds of the invention.

PI3Kβ, sequence (P42338 whole entry, species assumed, canonical isoform): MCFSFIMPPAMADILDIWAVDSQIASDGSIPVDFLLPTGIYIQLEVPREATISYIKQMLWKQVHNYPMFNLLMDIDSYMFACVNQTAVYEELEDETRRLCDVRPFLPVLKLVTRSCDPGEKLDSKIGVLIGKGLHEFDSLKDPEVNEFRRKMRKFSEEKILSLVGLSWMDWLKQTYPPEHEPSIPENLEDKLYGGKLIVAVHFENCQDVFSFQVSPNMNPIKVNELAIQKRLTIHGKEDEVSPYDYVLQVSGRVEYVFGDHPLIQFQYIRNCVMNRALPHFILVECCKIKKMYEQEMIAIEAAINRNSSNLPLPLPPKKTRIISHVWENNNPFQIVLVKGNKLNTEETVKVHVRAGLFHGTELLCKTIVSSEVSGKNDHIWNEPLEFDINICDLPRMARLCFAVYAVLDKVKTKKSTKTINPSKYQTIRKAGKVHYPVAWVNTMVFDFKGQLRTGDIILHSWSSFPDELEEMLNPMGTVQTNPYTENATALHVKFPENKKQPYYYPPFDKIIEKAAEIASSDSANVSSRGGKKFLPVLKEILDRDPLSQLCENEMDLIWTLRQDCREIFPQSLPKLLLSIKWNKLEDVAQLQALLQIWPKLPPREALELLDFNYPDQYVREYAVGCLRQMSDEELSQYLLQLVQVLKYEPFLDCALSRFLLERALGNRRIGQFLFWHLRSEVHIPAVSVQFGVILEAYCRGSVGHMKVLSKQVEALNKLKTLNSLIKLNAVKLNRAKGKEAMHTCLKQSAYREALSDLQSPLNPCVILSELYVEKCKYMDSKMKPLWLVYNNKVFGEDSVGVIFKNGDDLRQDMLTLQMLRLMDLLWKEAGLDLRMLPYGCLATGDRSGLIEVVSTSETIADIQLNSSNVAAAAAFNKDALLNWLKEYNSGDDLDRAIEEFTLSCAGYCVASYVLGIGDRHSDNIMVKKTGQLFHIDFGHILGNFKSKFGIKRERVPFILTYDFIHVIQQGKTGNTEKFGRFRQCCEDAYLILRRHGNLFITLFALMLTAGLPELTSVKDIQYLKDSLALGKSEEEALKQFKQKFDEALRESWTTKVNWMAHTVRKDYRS
PI3Kβ, sequence (P27986 whole entry partner, species assumed, canonical isoform): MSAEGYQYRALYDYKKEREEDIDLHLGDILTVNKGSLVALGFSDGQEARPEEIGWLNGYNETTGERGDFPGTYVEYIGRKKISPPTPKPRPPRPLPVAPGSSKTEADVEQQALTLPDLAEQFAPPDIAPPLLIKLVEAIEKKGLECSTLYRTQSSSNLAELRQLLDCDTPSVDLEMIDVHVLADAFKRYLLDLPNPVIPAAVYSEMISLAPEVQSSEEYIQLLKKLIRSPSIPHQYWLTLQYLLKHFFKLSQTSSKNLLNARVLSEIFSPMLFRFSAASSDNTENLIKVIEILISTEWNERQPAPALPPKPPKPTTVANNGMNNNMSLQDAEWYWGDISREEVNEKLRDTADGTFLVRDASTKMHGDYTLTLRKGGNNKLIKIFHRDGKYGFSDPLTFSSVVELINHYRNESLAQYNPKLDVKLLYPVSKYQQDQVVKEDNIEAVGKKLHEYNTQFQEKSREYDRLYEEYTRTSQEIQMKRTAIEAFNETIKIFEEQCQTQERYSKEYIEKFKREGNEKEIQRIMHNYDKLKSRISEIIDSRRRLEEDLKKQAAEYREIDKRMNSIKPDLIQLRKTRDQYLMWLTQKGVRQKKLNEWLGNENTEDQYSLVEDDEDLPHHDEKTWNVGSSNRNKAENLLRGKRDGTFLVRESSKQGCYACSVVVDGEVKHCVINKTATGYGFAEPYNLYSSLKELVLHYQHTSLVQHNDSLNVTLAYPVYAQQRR
PI3Kγ, sequence (P48736 whole entry, species assumed, canonical isoform): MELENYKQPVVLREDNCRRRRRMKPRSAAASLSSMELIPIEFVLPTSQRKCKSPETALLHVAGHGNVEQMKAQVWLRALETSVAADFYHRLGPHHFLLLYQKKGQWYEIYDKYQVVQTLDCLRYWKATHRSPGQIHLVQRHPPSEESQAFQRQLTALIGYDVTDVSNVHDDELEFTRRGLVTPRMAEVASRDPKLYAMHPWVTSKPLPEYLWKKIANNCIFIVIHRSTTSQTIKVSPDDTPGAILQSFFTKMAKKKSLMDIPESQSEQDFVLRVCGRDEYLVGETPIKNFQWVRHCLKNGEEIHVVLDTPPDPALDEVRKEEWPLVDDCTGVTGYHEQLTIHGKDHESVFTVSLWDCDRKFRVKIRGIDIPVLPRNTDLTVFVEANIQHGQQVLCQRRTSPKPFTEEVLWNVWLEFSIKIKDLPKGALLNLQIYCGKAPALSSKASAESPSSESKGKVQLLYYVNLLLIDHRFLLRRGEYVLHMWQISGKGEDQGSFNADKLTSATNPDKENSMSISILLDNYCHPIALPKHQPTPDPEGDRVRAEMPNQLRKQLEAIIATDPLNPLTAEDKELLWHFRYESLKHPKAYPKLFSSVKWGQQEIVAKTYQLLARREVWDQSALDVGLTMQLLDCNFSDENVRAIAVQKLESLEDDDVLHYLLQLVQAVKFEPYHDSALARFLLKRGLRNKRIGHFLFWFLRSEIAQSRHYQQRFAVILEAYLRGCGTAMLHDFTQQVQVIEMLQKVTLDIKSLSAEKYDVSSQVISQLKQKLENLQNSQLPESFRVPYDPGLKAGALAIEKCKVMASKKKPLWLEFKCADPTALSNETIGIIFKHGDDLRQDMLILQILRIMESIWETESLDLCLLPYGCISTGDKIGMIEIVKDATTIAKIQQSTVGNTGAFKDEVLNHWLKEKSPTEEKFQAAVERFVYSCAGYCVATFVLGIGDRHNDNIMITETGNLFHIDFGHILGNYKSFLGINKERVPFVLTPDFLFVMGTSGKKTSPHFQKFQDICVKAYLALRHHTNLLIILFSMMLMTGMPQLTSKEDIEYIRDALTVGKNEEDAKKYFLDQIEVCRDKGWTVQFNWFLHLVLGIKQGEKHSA
PI3Kα, sequence (P42336 whole entry, species assumed, canonical isoform): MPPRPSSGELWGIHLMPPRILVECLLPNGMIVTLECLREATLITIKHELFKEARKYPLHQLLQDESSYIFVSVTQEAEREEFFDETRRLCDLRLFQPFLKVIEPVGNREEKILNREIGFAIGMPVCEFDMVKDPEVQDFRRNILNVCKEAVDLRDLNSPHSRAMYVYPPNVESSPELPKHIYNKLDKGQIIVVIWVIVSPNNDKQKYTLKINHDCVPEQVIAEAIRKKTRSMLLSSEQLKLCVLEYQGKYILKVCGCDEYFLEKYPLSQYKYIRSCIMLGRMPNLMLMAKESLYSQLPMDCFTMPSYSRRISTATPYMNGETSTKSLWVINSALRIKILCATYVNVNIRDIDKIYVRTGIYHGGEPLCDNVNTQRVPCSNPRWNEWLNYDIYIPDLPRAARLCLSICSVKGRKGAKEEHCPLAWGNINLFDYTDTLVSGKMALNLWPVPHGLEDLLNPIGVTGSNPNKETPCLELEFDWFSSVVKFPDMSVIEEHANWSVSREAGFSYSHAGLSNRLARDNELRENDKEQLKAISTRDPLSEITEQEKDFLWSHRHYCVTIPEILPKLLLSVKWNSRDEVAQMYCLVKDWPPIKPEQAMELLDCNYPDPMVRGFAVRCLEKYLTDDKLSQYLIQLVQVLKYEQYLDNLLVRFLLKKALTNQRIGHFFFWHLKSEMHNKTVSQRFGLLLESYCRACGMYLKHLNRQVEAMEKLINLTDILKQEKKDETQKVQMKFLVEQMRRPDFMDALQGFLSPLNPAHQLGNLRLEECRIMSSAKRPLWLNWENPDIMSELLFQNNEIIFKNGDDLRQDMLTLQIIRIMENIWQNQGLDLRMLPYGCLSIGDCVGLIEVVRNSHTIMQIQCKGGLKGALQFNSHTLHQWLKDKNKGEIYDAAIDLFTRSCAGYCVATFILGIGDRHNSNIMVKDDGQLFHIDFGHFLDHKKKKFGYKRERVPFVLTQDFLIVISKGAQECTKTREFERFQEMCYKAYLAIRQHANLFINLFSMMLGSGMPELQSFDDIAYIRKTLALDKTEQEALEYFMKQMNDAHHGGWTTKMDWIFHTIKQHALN
PI3Kα, sequence (P27986 whole entry partner, species assumed, canonical isoform): as the sequence (P27986 whole entry partner, species assumed, canonical isoform) above

IC50 ([1]; Homo sapiens, Pfeiffer) [nM] | SMILES | IC50 (B cells; B-cell) [nM] | also measured
– | Cc1csc2nc(C(C)Nc3ncnc4[nH]cnc34)c(-c3cc(F)cc(F)c3)c(=O)n12 (single isomer, unassigned) [Example 44, 6-(3,5-difluorophenyl)-3-methyl-7-[1-(9H-purin-6-ylamino)ethyl]-5H-[1,3]thiazolo[3,2-a]pyrimidin-5-one] | – | IC50 (PI3Kγ): > 500 nM; IC50 (PI3Kβ): > 500 nM; IC50 (PI3Kα): > 500 nM
< 50 | Cc1csc2nc(C(C)Nc3ncnc4[nH]cnc34)c(-c3ccccc3)c(=O)n12 (stereo not shown) [Example 8, 3-methyl-6-phenyl-7-[1-(9H-purin-6-ylamino)ethyl]-5H-[1,3]thiazolo[3,2-a]pyrimidin-5-one] | < 50 | –
< 50 | Cc1csc2nc(C(C)Nc3nc(N)nc4[nH]cnc34)c(-c3ccccc3)c(=O)n12 (stereo not shown) [Example 9, 7-{1-[(2-amino-9H-purin-6-yl)amino]ethyl}-3-methyl-6-phenyl-5H-[1,3]thiazolo[3,2-a]pyrimidin-5-one] | < 50 | –
< 50 | Cc1csc2nc(C(C)Nc3nc(N)nc4[nH]cnc34)c(-c3cccc(F)c3)c(=O)n12 (stereo not shown) [Example 11, 7-{1-[(2-amino-9H-purin-6-yl)amino]ethyl}-6-(3-fluorophenyl)-3-methyl-5H-[1,3]thiazolo[3,2-a]pyrimidin-5-one] | < 50 | –
– | Cc1csc2nc(C(C)Nc3ncnc4[nH]cnc34)c(-c3cccc(F)c3)c(=O)n12 (stereo not shown) [Example 30, 6-(3-fluorophenyl)-3-methyl-7-[1-(9H-purin-6-ylamino)ethyl]-5H-[1,3]thiazolo[3,2-a]pyrimidin-5-one] | – | IC50 [1]: < 50 nM; IC50 (B cells): < 50 nM

SMILES | IC50 ([1]; Homo sapiens, Pfeiffer) [nM] | IC50 (B cells; B-cell) [nM] | also measured
Cc1csc2nc(C(C)Nc3ncnc4[nH]cnc34)c(-c3cccc(F)c3)c(=O)n12 (stereo not shown) [Example 10, 6-(3-fluorophenyl)-3-methyl-7-[1-(9H-purin-6-ylamino)ethyl]-5H-[1,3]thiazolo[3,2-a]pyrimidin-5-one] | < 50 | < 50 | –

— patent publication US10428087B2, “Pyrimidinones as PI3K inhibitors” (Incyte Corporation, priority 2009, dated 2019)
